Source: PubChem BioAssay AID248 (DTP/NCI, 2004)
“And” between values parts separate entries of the source, which are not always exact repeats. Equal values may be shown once. Toxic doses and inconclusive results are not listed. No stated cut-off is given here; in the data, active means T/C of 150% or more; inactive means T/C below 125%. Square brackets hold non-standard residues; d marks the D form. Peptide text beside a SMILES is read from it. * marks the point of attachment. ξ: configuration not given here. ξE = NC(CCC(=O)O)C(=O)O; Cbz = O=C(OCc1ccccc1)*

System: L1210 leukemia ip in BDF1 mice, survival T/C
Assay: NCI In Vivo Anticancer Drug Screen. Data for tumor model L1210 Leukemia (intraperitoneal) in B6D2F1 (BDF1) mice
Settings: endpoint: mean survival time, higher = longer survival
Procedure, shortened: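 In this screen, tumor-bearing mice given compound are compared to those given vehicle, and their survival values are reported as a treated-to-control quotient.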

[1] = dose: 100.0 mg/kg/injection, schedule: Q01DX001 (ip), vehicle: carboxymethylcellulose (CMC)
[2] = dose: 100.0 mg/kg/injection, schedule: Q04DX003 (ip), vehicle: saline with Tween-80
[3] = dose: 200.0 mg/kg/injection, schedule: Q01DX001 (ip), vehicle: carboxymethylcellulose (CMC)
[4] = dose: 200.0 mg/kg/injection, schedule: Q04DX003 (ip), vehicle: saline with Tween-80
[5] = dose: 400.0 mg/kg/injection, schedule: Q01DX001 (ip), vehicle: carboxymethylcellulose (CMC)
[6] = dose: 400.0 mg/kg/injection, schedule: Q04DX003 (ip), vehicle: saline with Tween-80
[7] = dose: 100.0 mg/kg/injection, schedule: Q01DX009 (ip), vehicle: saline with Tween-80
[8] = dose: 200.0 mg/kg/injection, schedule: Q01DX009 (ip), vehicle: saline with Tween-80
[9] = dose: 400.0 mg/kg/injection, schedule: Q01DX009 (ip), vehicle: saline with Tween-80
[10] = dose: 50.0 mg/kg/injection, schedule: Q04DX002 (ip), vehicle: saline
[11] = dose: 100.0 mg/kg/injection, schedule: Q01DX001 (ip), vehicle: saline
[12] = dose: 200.0 mg/kg/injection, schedule: Q01DX001 (ip), vehicle: saline
[13] = dose: 400.0 mg/kg/injection, schedule: Q01DX001 (ip), vehicle: saline
[14] = dose: 100.0 mg/kg/injection, schedule: Q04DX003 (ip), vehicle: other
[15] = dose: 200.0 mg/kg/injection, schedule: Q04DX003 (ip), vehicle: other
[16] = dose: 100.0 mg/kg/injection, schedule: Q04DX003 (ip), vehicle: Klucel (hydroxypropylcellulose) (HPC)
[17] = dose: 200.0 mg/kg/injection, schedule: Q04DX003 (ip), vehicle: Klucel (hydroxypropylcellulose) (HPC)
[18] = dose: 400.0 mg/kg/injection, schedule: Q04DX003 (ip), vehicle: Klucel (hydroxypropylcellulose) (HPC)
[19] = dose: 100.0 mg/kg/injection, schedule: Q01DX009 (ip), vehicle: Klucel (hydroxypropylcellulose) (HPC)
[20] = dose: 200.0 mg/kg/injection, schedule: Q01DX009 (ip), vehicle: Klucel (hydroxypropylcellulose) (HPC)
[21] = dose: 400.0 mg/kg/injection, schedule: Q01DX009 (ip), vehicle: Klucel (hydroxypropylcellulose) (HPC)

Measured: T/C

CCN(CC)CCCC(C)NC/C=C/CNC(C)CCCN(CC)CC (stereo not given)
inactive: dose: 0.78 mg/kg/injection, schedule: Q01DX009 (ip), vehicle: water 104 % of control | dose: 6.25 mg/kg/injection, schedule: Q04DX003 (ip), vehicle: water 105 % of control | dose: 12.5 mg/kg/injection, schedule: Q04DX003 (ip), vehicle: water 92 % of control | dose: 25.0 mg/kg/injection, schedule: Q01DX009 (ip), vehicle: water 104 % of control | dose: 25.0 mg/kg/injection, schedule: Q04DX003 (ip), vehicle: water 103 % of control

CC(=O)c1ccc(S(=O)(=O)c2ccccc2)cc1
inactive: dose: 50.0 mg/kg/injection, schedule: Q01DX001 (ip), vehicle: carboxymethylcellulose (CMC) 93 % of control | [1] 93 % of control | [2] 96 % of control | [3] 101 % of control | [4] 91 % of control | [5] 95 % of control | [6] 107 % of control

Cc1ccc(/C=N/NC(=O)CNC(=O)c2ccccc2)cc1
inactive: [7] 93 % of control | [8] 96 % of control | [9] 98 % of control

Nc1ncnc2c1ncn2C1OC(C(=O)NCC(=O)O)C(O)C1O (stereo not given)
inactive: dose: 100.0 mg/kg/injection, schedule: Q01DX005 (ip), vehicle: saline 113 % of control | dose: 200.0 mg/kg/injection, schedule: Q01DX005 (ip), vehicle: saline 100 % of control | dose: 400.0 mg/kg/injection, schedule: Q01DX005 (ip), vehicle: saline 101 % of control

CC(=O)OC1CC(n2cc(C)c(=O)[nH]c2=O)OC1COP(=O)(N1CC1)N1CC1 (stereo not given)
inactive: [10] 107 % of control | dose: 200.0 mg/kg/injection, schedule: Q04DX002 (ip), vehicle: saline 112 % of control

COc1ccc(/C=C(\CCCOC(C)=O)[N+](=O)[O-])cc1OC
inactive: [1] 104 % of control | [3] 101 % of control

CCOC(=O)c1nnn(-c2cccc(C(F)(F)F)c2)c1-c1ccccc1
inactive: dose: 100.0 mg/kg/injection, schedule: Q04DX002 (ip), vehicle: Klucel (hydroxypropylcellulose) (HPC) 101 % of control | dose: 200.0 mg/kg/injection, schedule: Q04DX002 (ip), vehicle: Klucel (hydroxypropylcellulose) (HPC) 105 % of control | dose: 400.0 mg/kg/injection, schedule: Q04DX002 (ip), vehicle: Klucel (hydroxypropylcellulose) (HPC) 96 % of control

COc1c2occc2c(OC)c2c(=O)cc(/C=C/c3ccc4ccccc4n3)oc12
inactive: [11] 95 % of control | [12] 95 % of control | [13] 96 % of control

O=C(O)C(c1cccs1)c1cccs1
inactive: [7] 102 % of control | [2] 102 % of control | [8] 88 % of control | [4] 92 % of control | [9] 105 % of control | [6] 103 % of control

CC(C)CC[n+]1ccc(C(N)=O)cc1
inactive: [11] 97 % of control | dose: 100.0 mg/kg/injection, schedule: Q04DX003 (ip), vehicle: saline 98 % of control | [12] 100 % of control | dose: 200.0 mg/kg/injection, schedule: Q04DX003 (ip), vehicle: saline 97 % of control | [13] 95 % of control | dose: 400.0 mg/kg/injection, schedule: Q04DX003 (ip), vehicle: saline 104 % of control

O=C(O)CCC(NC(=O)OCc1ccccc1)C(=O)NCC(=O)O (stereo not given) (Cbz-[ξE]-Gly-OH)
inactive: dose: 12.5 mg/kg/injection, schedule: Q04DX002 (ip), vehicle: saline 95 % of control | dose: 25.0 mg/kg/injection, schedule: Q04DX002 (ip), vehicle: saline 92 % of control | [10] 100 % of control

NCCP(=O)(O)c1ccccc1
inactive: [11] 94 % of control | [12] 93 % of control | [13] 93 % of control

Oc1ccccc1C=Nc1cccc2c(N=Cc3ccccc3O)cccc12
inactive: dose: 50.0 mg/kg/injection, schedule: Q04DX003 (ip), vehicle: other 89 % of control | [11] 86 % of control | [14] 86 % of control | [12] 88 % of control | [15] 86 % of control | [13] 86 % of control

N#CCCc1c(-c2ccccc2)nc(N)[nH]c1=O
inactive: dose: 100.0 mg/kg/injection, schedule: Q04DX003 (ip), vehicle: carboxymethylcellulose (CMC) 92 % of control | dose: 200.0 mg/kg/injection, schedule: Q04DX003 (ip), vehicle: carboxymethylcellulose (CMC) 92 % of control | dose: 400.0 mg/kg/injection, schedule: Q04DX003 (ip), vehicle: carboxymethylcellulose (CMC) 87 % of control

CCN1C(=O)/C(=C\C=C2\SCCN2CI)OC1=S
inactive: dose: 177.6 mg/kg/injection, schedule: Q01DX001 (ip), vehicle: other 98 % of control and 89 % of control | dose: 266.8 mg/kg/injection, schedule: Q01DX001 (ip), vehicle: other 96 % of control | dose: 400.0 mg/kg/injection, schedule: Q01DX001 (ip), vehicle: other 96 % of control and 89 % of control | dose: 600.0 mg/kg/injection, schedule: Q01DX001 (ip), vehicle: other 103 % of control and 87 % of control

O=C1C(Br)=CC(Br)(Br)C=C1Br
inactive: [2] 92 % of control | [4] 95 % of control | [6] 93 % of control

O=C1NN=C2CCCCC12 (stereo not given)
inactive: [14] 107 % of control | [15] 97 % of control | dose: 400.0 mg/kg/injection, schedule: Q04DX003 (ip), vehicle: other 102 % of control

CCOC(=O)C(COS(=O)(=O)c1ccc(C)cc1)(COS(=O)(=O)c1ccc(C)cc1)C(=O)OCC
inactive: dose: 100.0 mg/kg/injection, schedule: Q01DX009 (ip), vehicle: saline 92 % of control | [16] 97 % of control | dose: 200.0 mg/kg/injection, schedule: Q01DX009 (ip), vehicle: saline 94 % of control | [17] 93 % of control | [18] 93 % of control

CC1(C)C(C)(C)C1(F)Cl
inactive: [1] 101 % of control | [3] 106 % of control | [5] 118 % of control

O=C(Nc1ccc(Cl)cc1[N+](=O)[O-])Oc1ccc(C2CCCCC2)cc1
inactive: [19] 93 % of control | [20] 89 % of control | [21] 88 % of control

CC(=O)OC(C(C)=O)C(C)=O.CC(=O)OC(C(C)=O)C(C)=O.[Cu]
inactive: dose: 12.0 mg/kg/injection, schedule: Q01DX001 (ip), vehicle: saline 93 % of control | dose: 12.0 mg/kg/injection, schedule: Q04DX003 (ip), vehicle: saline 96 % of control | dose: 25.0 mg/kg/injection, schedule: Q01DX001 (ip), vehicle: saline 95 % of control | dose: 25.0 mg/kg/injection, schedule: Q04DX003 (ip), vehicle: saline 96 % of control | dose: 50.0 mg/kg/injection, schedule: Q01DX001 (ip), vehicle: saline 101 % of control | dose: 50.0 mg/kg/injection, schedule: Q04DX003 (ip), vehicle: saline 103 % of control

CCCCCCC(/C=N/NC(=O)CCCCCCCCC(=O)N/N=C/C(=C/c1ccccc1)CCCCCC)=C\c1ccccc1
inactive: [19] 93 % of control | [20] 98 % of control | [21] 91 % of control

c1ccc2cc(C3OCC4(CCCCC4)CO3)ccc2c1
inactive: dose: 100.0 mg/kg/injection, schedule: Q01DX001 (ip), vehicle: Klucel (hydroxypropylcellulose) (HPC) 96 % of control | dose: 200.0 mg/kg/injection, schedule: Q01DX001 (ip), vehicle: Klucel (hydroxypropylcellulose) (HPC) 100 % of control | dose: 400.0 mg/kg/injection, schedule: Q01DX001 (ip), vehicle: Klucel (hydroxypropylcellulose) (HPC) 100 % of control

Cc1cccc(C)c1NC(=O)Oc1ccc(C2CCCCC2)cc1
inactive: [19] 101 % of control | [16] 91 % of control | [20] 97 % of control | [17] 93 % of control | [21] 94 % of control | [18] 88 % of control

CC1COCC(C)N1CCC(=O)Nc1ccc(S(=O)(=O)c2ccc(NC(=O)CCN3C(C)COCC3C)cc2)cc1 (stereo not given)
inactive: [1] 107 % of control | [3] 104 % of control | [5] 101 % of control

COc1c2ccoc2cc2oc(C)cc(=O)c12
inactive: dose: 37.5 mg/kg/injection, schedule: Q01DX001 (ip), vehicle: carboxymethylcellulose (CMC) 103 % of control | dose: 75.0 mg/kg/injection, schedule: Q01DX001 (ip), vehicle: carboxymethylcellulose (CMC) 100 % of control | dose: 150.0 mg/kg/injection, schedule: Q01DX001 (ip), vehicle: carboxymethylcellulose (CMC) 108 % of control
